Where a name gives a salt, the structure may show the parent alone. Read-outs that look alike come from different tables or passages of the source.
Assays:
[1] = Adhesion studies (tablet punch surfaces, blends with Avicel PH 101); format: physicochemical
Method: Avicel PH 101 and each (S)-amlodipine salt were pre-screened through a 25-mesh sieve to delump the powders prior to blending. […] Approximately 500 mg was weighed into the ½-inch tablet die, a tablet punch was added and 0.2 metric tons of pressure was applied using a Carver press for 2-3 seconds. The tablet was then removed, and the surfaces of the tablet punches (concave, SRC) were washed with mobile phase (1 mL). The wash was then assayed by HPLC. Three measurements were made for each blend.

Solid state stability = format: physicochemical; conditions: 60° C./75% RH
Method: Individual samples were prepared and stored at 25° C./60% RH and 40° C./75% RH. Samples stored at 60° C./75% RH were packaged in uncapped glass vials. All samples were analyzed for assay and impurity by HPLC.

[2] = format: physicochemical; conditions: for pH of saturated solution: DI H2O, ambient temperature
Excerpt: The solution was sampled periodically, filtered using a 0.2 μm PTFE syringe filter and assayed by HPLC.
The sample was filtered through a 0.2 μm filter and assayed by HPLC.

[3] = TGA, water content and moisture sorption profiles; format: physicochemical
Method: Moisture Sorption Isotherms: Moisture sorption isotherms were generated using VTI SGA-100 symmetric vapor sorption analyzer. Samples were not pre-dried. Equilibrium criteria were the lesser of 0.01 wt % change in 5 minutes or 180 minutes at each RH step. Temperature was fixed at 25° C. and the relative humidity steps (25% to 95% to 25%) were in 5% increments. In FIG. 27, adsorption data is shown as a solid line with desorption data connected by a dashed line. Water Content: Water content was determined by coulometric titration using an EM Science Aquastar® C300 Karl Fischer titrator. TGA: Samples were analyzed using Perkin Elmer TGA 7 thermal gravimetric analyzer at a heating rate of 10° C./min.

[4] = Moisture balance (VTI SGA-100 sorption isotherm); format: physicochemical; conditions: equilibrated at 95% RH (sorption range 5% to 95% RH)
Method: Moisture-sorption data were collected on a VTI SGA-100 moisture balance system. […] The sample was not dried prior to analysis. Equilibrium criteria used for analysis were less than 0.0100 weight-percent change in 5 minutes with a maximum equilibration time of 3 hours if the weight criterion was not met. The data were not corrected for the initial moisture content of the sample.

[5] = Hygroscopicity and desolvation studies of crystal forms (XRPD); format: physicochemical; conditions: 31, 75, 84 and 95% relative humidity, approximately one week
Method: Hygroscopicity studies were performed by placing portions of a select form in a 11, 32, 45, 66, 75, 84% or 95% relative humidity (RH) chamber for approximately one to three weeks. Desolvation studies were carried out by heating each form in an 80° C. oven for approximately one week. Interconversion experiments were carried out by making slurries containing two forms in a saturated solvent. The slurries were agitated for approximately seven days at ambient temperature. The insoluble solids were recovered by filtration and analyzed using XRPD.

[6] = 5% (S)-Amlodipine salt in Avicel
[7] = 25% (S)-Amlodipine salt in Avicel

Compound: O=C(O)[C@H](O)[C@@H](O)C(=O)O [(L)-Tartrate]
- Adhesion [1, 6]: 9.3E−07 g (S)-amlodipine/cm^2
- Adhesion [1, 7]: 4.9E−06 g (S)-amlodipine/cm^2

Compound: CCOC(=O)C1=C(COCCN)NC(C)=C(C(=O)OC)[C@@H]1c1ccccc1Cl.O=C(O)C(O)C(O)C(=O)O [(S)-amlodipine D-tartrate]
- Adhesion [1, 6]: 6.0E−07 g (S)-amlodipine/cm^2
- Adhesion [1, 7]: 2.8E−06 g (S)-amlodipine/cm^2

Compound: CCOC(=O)C1=C(COCCN)NC(C)=C(C(=O)OC)[C@@H]1c1ccccc1Cl [(S)-amlodipine maleate]
- Adhesion [1, 6]: 5.8E−07 g (S)-amlodipine/cm^2
- Adhesion [1, 7]: 3.9E−06 g (S)-amlodipine/cm^2

Compound: (S)-amlodipine L-malate
- time for which solid was fairly stable (Solid state stability): > 2 months
- pH of saturated solution ([2]; initial salt screen): 4.0
- pH of saturated solution ([2]; more recent sample): 3.56
- Free Base Concentration (solubility) ([2]; pH 3.56): 6000 µg/mL
- Malate Concentration (solubility) ([2]; pH 3.56): 8000 µg/mL
- Free Base Concentration (solubility) ([2]; pH 4): 10100 µg/mL
- Malate Concentration (solubility) ([2]; pH 4): 13400 µg/mL
- Moisture Desorption ([3]; at 25% RH, 25° C.): 0.06 % wt remaining
- Moisture Adsorption ([3]; at 95% RH, 25° C.): 0.24 % wt gain
- KF water content ([3]; coulometric Karl Fischer): 0.13 % H2O
- TGA ([3]; heating rate 10° C./min): 0.14 % wt loss
- hygroscopicity ([3]; moisture sorption, TGA and Karl Fischer data): not hygroscopic
- Adhesion [1, 6]: 4.9E−07 g (S)-amlodipine/cm^2
- Adhesion [1, 7]: 2.6E−06 g (S)-amlodipine/cm^2
- adhesion to solid dosage form manufacturing equipment compared to other salts ([1]; blended at typical levels with Avicel): decreased adhesion
- increase in weight (moisture balance) [4]: 0.5%
- crystal form after hygroscopicity study [5]: remained unchanged

Compound: CCOC(=O)C1=C(COCCN)NC(C)=C(C(=O)OC)C1c1ccccc1Cl.O=C(O)CC(O)C(=O)O [form D′, (S)-Amlodipine-D-malate]
- increase in weight (moisture balance) [4]: 0.3%

Source: patent publication US20060035940A1, “(S)-Amlodipine malate” (Sepracor Inc., priority 2004, published 2006)
